Reference: the supplement of paper PMC10307832

Compound: COc1cc(Nc2ncc(F)c(Nc3ccc4c(n3)NC(=O)C(C)(C)O4)n2)cc(OC)c1OC [R406] + CC1(C)CCC(c2ccc(Cl)cc2)=C(CN2CCN(c3ccc(C(=O)NS(=O)(=O)c4ccc(N[C@H](CCN5CCOCC5)CSc5ccccc5)c(S(=O)(=O)C(F)(F)F)c4)cc3)CC2)C1 [Navitoclax] (partner 0.5 µM)
Assay: relative viability (nuclei count vs DMSO), 5 days (fraction); higher = more cells survive
Settings: first compound 8 µM
Method in brief: (§1)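 Each reported value is a median over duplicate plates. It expresses relative viability: treated-well nuclei count divided by vehicle-well nuclei count. Lung cancer cell lines in 1536-well plates were dosed by pin tool a day after seeding, alone with one drug or with a fixed anchor-drug dose plus five library-drug doses (not always all listed) in √10 steps, and nuclei were counted after 5 days.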

Point of comparison: NCI-H1975, relative viability 0.237. Against it:
- NCI-H1651 — higher, 0.463
- EPLC-272H — higher, 0.589
- NCI-H2228 — lower, 0.168
- NCI-H1355 — higher, 0.648
- NCI-H3122 — higher, 0.82
- NCI-H1437 — higher, 0.725
- NCI-H1755 — higher, 0.483
- NCI-H2023 — higher, 0.603
- HCC-15 — higher, 0.509
- PC-3 [JPC-3] — higher, 0.6
- EKVX — higher, 0.521
- LC-2-ad — lower, 0.101
- SK-LU-1 — lower, 0.145
- NCI-H1944 — higher, 0.743
- RERF-LC-KJ — higher, 0.842

Compound: O=C(/C=C/c1cccnc1)NCCCCC1CCN(C(=O)c2ccccc2)CC1 [Daporinad] + CC1(C)CCC(c2ccc(Cl)cc2)=C(CN2CCN(c3ccc(C(=O)NS(=O)(=O)c4ccc(N[C@H](CCN5CCOCC5)CSc5ccccc5)c(S(=O)(=O)C(F)(F)F)c4)cc3)CC2)C1 [Navitoclax] (partner 0.5 µM)
Assay: as above
Settings: first compound 0.0005 µM
Method in brief: as §1

Point of comparison: NCI-H3122, relative viability 1.01. Against it:
- BEN — lower, 0.074
- HARA — higher, 1.15
- HCC-78 — lower, 0.644
- NCI-H322M — higher, 1.25
- LCLC-97TM1 — lower, 0.365
- NCI-H2009 — higher, 1.17
- A-427 — lower, 0.964
- NCI-H460 — higher, 1.09
- NCI-H1734 — lower, 0.845
- NCI-H520 — lower, 0.945
- NCI-H2347 — lower, 0.926
- SW 1573 — lower, 0.897
- NCI-H1395 — higher, 1.03
- 201T — higher, 1.23
- NCI-H1915 — lower, 0.805
- HCC-827 — higher, 1.12
- LXF-289 — lower, 0.868
- NCI-H23 — lower, 0.83
- CAL-12T — higher, 1.33
- NCI-H1651 — higher, 1.14
- EPLC-272H — higher, 1.22
- NCI-H2228 — higher, 1.05
- NCI-H1355 — lower, 0.911
- NCI-H1437 — higher, 1.09
- NCI-H1755 — lower, 0.987
- NCI-H2023 — lower, 0.995
- HCC-15 — lower, 0.661
- PC-3 [JPC-3] — lower, 0.763
- EKVX — lower, 0.808
- LC-2-ad — lower, 0.43
- NCI-H1975 — higher, 1.28
- SK-LU-1 — lower, 0.901
- NCI-H1944 — higher, 1.08
- RERF-LC-KJ — higher, 1.04

Same assay, conditions: first compound 0.001581 µM

Point of comparison: SW 1573, relative viability 0.991. Against it:
- BEN — lower, 0.147
- HARA — higher, 1.08
- HCC-78 — lower, 0.935
- NCI-H322M — higher, 1.43
- LCLC-97TM1 — lower, 0.506
- NCI-H2009 — higher, 1.2
- A-427 — higher, 1.04
- NCI-H460 — higher, 1.32
- NCI-H1734 — lower, 0.96
- NCI-H520 — lower, 0.442
- NCI-H2347 — lower, 0.887
- NCI-H1395 — higher, 1.14
- 201T — higher, 1.19
- NCI-H1915 — lower, 0.739
- HCC-827 — higher, 1.03
- LXF-289 — lower, 0.951
- NCI-H23 — lower, 0.637
- CAL-12T — lower, 0.925
- NCI-H1651 — higher, 1.16
- EPLC-272H — higher, 1.47
- NCI-H2228 — higher, 1.1
- NCI-H1355 — lower, 0.98
